Results reported in ChEMBL document CHEMBL3272271, “Folate antagonists. 13. 2,4-Diamino-6-](alpha,alpha,alpha-trifluoro-m-tolyl)thio]quinazoline and related 2,4-diamino-6-[(phenyl- and naphthyl)thio]quinazolines, a unique class of antimetabolites with extraordinary antimalarial and antibacterial effects” (J Med Chem, 1978).
≈ marks a conversion by molar mass, not a printed value. Calls of active or inactive are those of the source. The rule behind the calls is not given here.

Legend:
Plasmodium berghei [1] = experiment: Antimalarial activity against Plasmodium berghei infected in mouse assessed as increase in mean survival days of host at 640 mg/kg, sc administered 72 hrs after infection relative to control; type: functional; conditions: route subcutaneous
Plasmodium berghei [2] = experiment: Antimalarial activity against Plasmodium berghei infected in mouse assessed as increase in mean survival days of host at 80 mg/kg, sc administered 72 hrs after infection relative to control; type: functional; conditions: route subcutaneous
Plasmodium berghei [3] = experiment: Antimalarial activity against Plasmodium berghei infected in mouse assessed as disease cure from parasite infection at 640 mg/kg, sc administered 72 hrs after infection; type: functional, organism-based; parameters: dose 640 mg/kg
Plasmodium gallinaceum [4] = experiment: Antimalarial activity against sporozoite-induced Plasmodium gallinaceum infected in white leghorn chicken assessed as increase in mean survival days of host at 30 mg/kg, sc administered 72 hrs after infection relative to control; type: functional; conditions: route subcutaneous
Plasmodium gallinaceum [5] = experiment: Antimalarial activity against sporozoite-induced Plasmodium gallinaceum infected in white leghorn chicken assessed as disease cure from parasite infection at 15 mg/kg, sc administered 72 hrs after infection; type: functional, organism-based; parameters: dose 15 mg/kg
Staphylococcus aureus [6] = experiment: Antibacterial activity against Staphylococcus aureus UC-96 by gradient plate test; type: functional
Plasmodium berghei [7] = experiment: Antimalarial activity against Plasmodium berghei infected in mouse assessed as increase in mean survival days of host at 20 mg/kg, sc administered 72 hrs after infection relative to control; type: functional; conditions: route subcutaneous
Enterococcus faecalis = experiment: Antibacterial activity against Streptococcus faecalis MGH-2 by gradient plate test; type: functional
Pseudomonas aeruginosa = experiment: Antibacterial activity against Pseudomonas aeruginosa 28 by gradient plate test; type: functional
Plasmodium gallinaceum [8] = experiment: Antimalarial activity against sporozoite-induced Plasmodium gallinaceum infected in white leghorn chicken assessed as disease cure from parasite infection at 30 mg/kg, sc administered 72 hrs after infection; type: functional, organism-based; parameters: dose 30 mg/kg
Plasmodium berghei [9] = experiment: Antimalarial activity against Plasmodium berghei infected in mouse assessed as increase in mean survival days of host at 320 mg/kg, sc administered 72 hrs after infection relative to control; type: functional; conditions: route subcutaneous
Plasmodium gallinaceum [10] = experiment: Antimalarial activity against sporozoite-induced Plasmodium gallinaceum infected in white leghorn chicken assessed as increase in mean survival days of host at 15 mg/kg, sc administered 72 hrs after infection relative to control; type: functional; conditions: route subcutaneous
Staphylococcus aureus [11] = experiment: Antibacterial activity against drug-resistant Staphylococcus aureus S18713 by gradient plate test; type: functional
Shigella sonnei = experiment: Antibacterial activity against Shigella sonnei C-10 by gradient plate test; type: functional
Plasmodium gallinaceum [12] = experiment: Antimalarial activity against sporozoite-induced Plasmodium gallinaceum infected in white leghorn chicken assessed as disease cure from parasite infection at 240 mg/kg, sc administered 72 hrs after infection; type: functional, organism-based; parameters: dose 240 mg/kg
Plasmodium gallinaceum [13] = experiment: Antimalarial activity against sporozoite-induced Plasmodium gallinaceum infected in white leghorn chicken assessed as disease cure from parasite infection at 120 mg/kg, sc administered 72 hrs after infection; type: functional, organism-based; parameters: dose 120 mg/kg
Plasmodium berghei [14] = experiment: Antimalarial activity against Plasmodium berghei infected in mouse assessed as increase in mean survival days of host at 10 mg/kg, sc administered 72 hrs after infection relative to control; type: functional; conditions: route subcutaneous
Plasmodium gallinaceum [15] = experiment: Antimalarial activity against sporozoite-induced Plasmodium gallinaceum infected in white leghorn chicken assessed as increase in mean survival days of host at 60 mg/kg, sc administered 72 hrs after infection relative to control; type: functional; conditions: route subcutaneous
Plasmodium berghei [16] = experiment: Antimalarial activity against Plasmodium berghei infected in mouse assessed as increase in mean survival days of host at 160 mg/kg, sc administered 72 hrs after infection relative to control; type: functional; conditions: route subcutaneous
Plasmodium gallinaceum [17] = experiment: Antimalarial activity against sporozoite-induced Plasmodium gallinaceum infected in white leghorn chicken assessed as disease cure from parasite infection at 60 mg/kg, sc administered 72 hrs after infection; type: functional, organism-based; parameters: dose 60 mg/kg
Plasmodium berghei [18] = experiment: Antimalarial activity against Plasmodium berghei infected in mouse assessed as increase in mean survival days of host at 40 mg/kg, sc administered 72 hrs after infection relative to control; type: functional; conditions: route subcutaneous
Escherichia coli = experiment: Antibacterial activity against Escherichia coli Vogel by gradient plate test; type: functional
Plasmodium gallinaceum [19] = experiment: Antimalarial activity against sporozoite-induced Plasmodium gallinaceum infected in white leghorn chicken assessed as disease cure from parasite infection at 480 mg/kg, sc administered 72 hrs after infection; type: functional, organism-based; parameters: dose 480 mg/kg
[20] = system: Mycobacterium tuberculosis; experiment: Antibacterial activity against Mycobacterium tuberculosis H37Ra by gradient plate test; type: functional
Plasmodium berghei [21] = experiment: Antimalarial activity against trophozoite-induced Plasmodium berghei infected in mouse assessed as daily dose required to suppression of 90% parasite infection administered with diet for 6 days; type: functional
Plasmodium berghei [22] = experiment: Antimalarial activity against Plasmodium berghei infected in mouse assessed as disease cure from parasite infection at 20 mg/kg, sc administered 72 hrs after infection; type: functional, organism-based; parameters: dose 20 mg/kg
Plasmodium gallinaceum [23] = experiment: Antimalarial activity against sporozoite-induced Plasmodium gallinaceum infected in white leghorn chicken assessed as increase in mean survival days of host at 10 mg/kg, sc administered 72 hrs after infection relative to control; type: functional; conditions: route subcutaneous
Plasmodium berghei [24] = experiment: Antimalarial activity against Plasmodium berghei infected in mouse assessed as disease cure from parasite infection at 160 mg/kg, sc administered 72 hrs after infection; type: functional, organism-based; parameters: dose 160 mg/kg
Plasmodium berghei [25] = experiment: Antimalarial activity against Plasmodium berghei infected in mouse assessed as increase in mean survival days of host at 2.5 mg/kg, sc administered 72 hrs after infection relative to control; type: functional; conditions: route subcutaneous
Plasmodium gallinaceum [26] = experiment: Antimalarial activity against sporozoite-induced Plasmodium gallinaceum infected in white leghorn chicken assessed as disease cure from parasite infection at 320 mg/kg, sc administered 72 hrs after infection; type: functional, organism-based; parameters: dose 320 mg/kg
Plasmodium gallinaceum [27] = experiment: Antimalarial activity against sporozoite-induced Plasmodium gallinaceum infected in white leghorn chicken assessed as disease cure from parasite infection at 80 mg/kg, sc administered 72 hrs after infection; type: functional, organism-based; parameters: dose 80 mg/kg
Plasmodium gallinaceum [28] = experiment: Antimalarial activity against sporozoite-induced Plasmodium gallinaceum infected in white leghorn chicken assessed as disease cure from parasite infection at 20 mg/kg, sc administered 72 hrs after infection; type: functional, organism-based; parameters: dose 20 mg/kg
Plasmodium gallinaceum [29] = experiment: Antimalarial activity against sporozoite-induced Plasmodium gallinaceum infected in white leghorn chicken assessed as disease cure from parasite infection at 10 mg/kg, sc administered 72 hrs after infection; type: functional, organism-based; parameters: dose 10 mg/kg
Plasmodium berghei [30] = experiment: Antimalarial activity against Plasmodium berghei infected in mouse assessed as increase in mean survival days of host at 1.25 mg/kg, sc administered 72 hrs after infection relative to control; type: functional; conditions: route subcutaneous
Plasmodium berghei [31] = experiment: Antimalarial activity against Plasmodium berghei infected in mouse assessed as increase in mean survival days of host at 5 mg/kg, sc administered 72 hrs after infection relative to control; type: functional; conditions: route subcutaneous
Gallus gallus = experiment: Toxicity in sporozoite-induced Plasmodium gallinaceum infected white leghorn chicken assessed as mortality at 320 mg/kg, sc administered 72 hrs after infection measured up to 6 days; type: organism-based; parameters: dose 320 mg/kg, route subcutaneous; conditions: in vivo
Plasmodium gallinaceum [32] = experiment: Antimalarial activity against sporozoite-induced Plasmodium gallinaceum infected in white leghorn chicken assessed as increase in mean survival days of host at 20 mg/kg, sc administered 72 hrs after infection relative to control; type: functional; conditions: route subcutaneous
Plasmodium berghei [33] = experiment: Antimalarial activity against Plasmodium berghei infected in mouse assessed as disease cure from parasite infection at 80 mg/kg, sc administered 72 hrs after infection; type: functional, organism-based; parameters: dose 80 mg/kg
Plasmodium gallinaceum [34] = experiment: Antimalarial activity against sporozoite-induced Plasmodium gallinaceum infected in white leghorn chicken assessed as disease cure from parasite infection at 160 mg/kg, sc administered 72 hrs after infection; type: functional, organism-based; parameters: dose 160 mg/kg
Plasmodium berghei [35] = experiment: Antimalarial activity against Plasmodium berghei infected in mouse assessed as disease cure from parasite infection at 40 mg/kg, sc administered 72 hrs after infection; type: functional, organism-based; parameters: dose 40 mg/kg
Plasmodium berghei [36] = experiment: Antimalarial activity against Plasmodium berghei infected in mouse assessed as disease cure from parasite infection at 320 mg/kg, sc administered 72 hrs after infection; type: functional, organism-based; parameters: dose 320 mg/kg
Plasmodium gallinaceum [37] = experiment: Antimalarial activity against sporozoite-induced Plasmodium gallinaceum infected in white leghorn chicken assessed as disease cure from parasite infection at 40 mg/kg, sc administered 72 hrs after infection; type: functional, organism-based; parameters: dose 40 mg/kg
Plasmodium berghei [38] = experiment: Ratio of quinine hydrochloride SD90 to compound SD90 for trophozoite-induced Plasmodium berghei infected in mouse assessed as daily dose required to suppression of 90% parasite infection administered with diet for 6 days; type: functional

## Nc1nc(N)c2cc(Sc3ccccc3-c3ccccc3)ccc2n1
Plasmodium berghei [1]
  MST: 16.4 days
Plasmodium berghei [2]
  MST: 3.3 days
Plasmodium berghei [3]
  Activity: Active
Plasmodium gallinaceum [4]
  MST: 0 days
Plasmodium gallinaceum [5]
  Activity: Active
Staphylococcus aureus [6]
  MIC: < 0.25 µg/mL
Plasmodium berghei [7]
  MST: 0.5 days
Enterococcus faecalis
  MIC: < 0.25 µg/mL
Pseudomonas aeruginosa
  MIC: > 25 µg/mL
Plasmodium gallinaceum [8]
  Activity: Active
Plasmodium berghei [9]
  MST: 12.5 days
Plasmodium gallinaceum [10]
  MST: 0 days
Staphylococcus aureus [11]
  MIC: < 0.25 µg/mL
Shigella sonnei
  MIC: > 25 µg/mL
Plasmodium gallinaceum [12]
  Activity: Active
Plasmodium gallinaceum [13]
  Activity: Active
Plasmodium berghei [14]
  MST: 0.3 days
Plasmodium gallinaceum [15]
  MST: 0 days
Plasmodium berghei [16]
  MST: 5.7 days
Plasmodium gallinaceum [17]
  Activity: Active
Plasmodium berghei [18]
  MST: 0.5 days
Escherichia coli
  MIC: 2.5 µg/mL (≈ 7.26 µM)
Plasmodium gallinaceum [19]
  Activity: Active
[20]
  MIC: 20 µg/mL (≈ 58.1 µM)

## COc1ccc(Sc2ccc3nc(N)nc(N)c3c2)cc1
Plasmodium berghei [21]
  SD90: 1.2 mg/kg/day
Plasmodium berghei [22]
  Activity: Active
Plasmodium gallinaceum [23]
  MST: 2.2 days
Plasmodium berghei [24]
  Activity: Active
Plasmodium berghei [25]
  MST: 3.8 days
Plasmodium berghei [3]
  Activity: Active
Plasmodium gallinaceum [26]
  Activity: Active
Plasmodium gallinaceum [27]
  Activity: Active
Plasmodium gallinaceum [28]
  Activity: Active
Plasmodium gallinaceum [29]
  Activity: Active
Staphylococcus aureus [6]
  MIC: < 0.25 µg/mL
Plasmodium berghei [30]
  MST: 2.2 days
Plasmodium berghei [31]
  MST: 4.8 days
Enterococcus faecalis
  MIC: < 0.25 µg/mL
Gallus gallus
  Activity: Toxic
Pseudomonas aeruginosa
  MIC: > 25 µg/mL
Plasmodium gallinaceum [32]
  MST: 3.2 days
Plasmodium berghei [33]
  Activity: Active
Plasmodium gallinaceum [34]
  Activity: Active
Plasmodium berghei [35]
  Activity: Active
Plasmodium berghei [36]
  Activity: Active
Plasmodium gallinaceum [37]
  Activity: Active
Staphylococcus aureus [11]
  MIC: < 0.25 µg/mL
Plasmodium berghei [38]
  Ratio: 62
Shigella sonnei
  MIC: 1.5 µg/mL (≈ 5.03 µM)
Plasmodium berghei [14]
  MST: 9.6 days
Escherichia coli
  MIC: < 0.25 µg/mL
